Results on 2 compounds are retold here after patent US20110033906A1 (priority 2009, published 2011).

The subject of series [1] is cellulase surface-displaying yeast (arming yeast). The settings on record: 120 hours after the start of fermentation.

As to “1-ethyl-3-methylimidazolium diethylphosphate [[Emim][DEP]]”, the “ethanol yield relative to theoretical yield” value in series [1] is given as “about 56%”. Moreover, in series [1] (crystalline cellulose (Avicel) pretreated with [Emim][DEP], arming yeast, ionic liquid present), the ethanol obtained worked out at 1.43 g/L.
`CCn1cc[n+](C)c1` [[Emim][Cl], 1-ethyl-3-methylimidazolium chloride]: in the series with yeast (MT 8-1), the “yeast survivability (live cell counts)” value is “not greatly affected”.
